One may read the EC50 as the concentration that produces a half-maximal response. The inhibition is the relative decrease from the control value, in per cent.

Structures are written as SMILES. Like-named read-outs stand apart in the source and are kept apart here.

What all share (format): cell-based
The subject of data set [1] is CSES2 human embryonic stem cells. The experiment in a line: CellTiter-Glo luminescent cell viability screen, CSES2. The following applies: for inhibition at 20 µM: pluripotent stem cells. The protocol: 5,000 CSES2 cells were plated in 50 μl per well of mTeSR1 medium into black 384-well clear-bottom plates (Falcon BD) pre-coated with Matrigel™ using WellMate cell dispenser (Matrix, Hudson, N.H.). 24 hours after plating, medium was replaced with 25 μl of fresh medium and 25 μl of 40 μM compound medium solutions in 1% DMSO from the intermediate compound dilution plates. The plates were incubated at 37° C., in a 5% CO2 atmosphere, for the entire duration of the screen, apart from the time required for liquid handling. […] 50 μl of CellTiter-Glo® reagent was added to each well of the assay plates and fully mixed. After incubation at room temperature for 15 minutes, 25 μl of liquid was transferred from each well into a white opaque-bottom 384-well plate (PerkinElmer), and luminescence was measured using an EnVision® plate reader (PerkinElmer). 16 neutral control wells (0.5% DMSO) and 8 positive control wells (5 μM amsacrine hydrochloride were used to normalize the compound effect. All liquid transfer steps were handled with a Biomek® FXP Laboratory Automation Workstation (Beckman Coulter, Fullerton, Calif.) and Muitidrop Combi liquid dispenser (Thermo Fisher, Waltham, Mass.). An Assay Analyzer (Genedata, Basel, Switzerland) was used for data pattern correction and calculation. The Spotfire software (Spotfire, Somerville, Mass.) was used for data illustration.
The compounds identified as hits from the primary screen were retested at a concentration of 20 μM against three pluripotent stem cell lines (CSES2, H9 and CSES2-SO2/3) for confirmation screens.
(§1) 696 confirmed hits from the confirmation screen were tested for profiling in a panel of 13 different cell types, using the same screening protocol described above (except in the case of embryonic stem cell-derived neural stem cells (NSCs) and mesenchymal stem cells (MSCs), for which the protocol is described below). As discussed below, compounds were tested either in dose-dependent multiple concentration manner or in single concentration manner. CSES2 and CSES2-SO2/3 cell lines and the early endodermal progenitors derived from this cell line (CSES2-SO2/3-differentiated) were screened at 8 concentrations ranging from 50 μM to 23 nM with 1:3 serial dilution steps. BJ-iPS28 cell line and the BJ fibroblasts from which it was derived were screened at 6 concentrations ranging from 50 μM to 200 nM with 1:3 serial dilution steps. Cardiomyocytes were screened in one concentration of 20 μM. HeLa and NTERA-2 cell lines were screened in duplicates of 20 μM. Kelly and Huh-7 were screened in triplicates of 20 μM. Hepatocytes were screened in duplicates of 20 μM in the original 96-well plates in which the cells arrived (40,000 cells per well, in 160 μl medium, the volumes of all reagents involved were adjusted accordingly). MSCs and NSCs were screened in duplicates of 12.5 μM.
(§2) The raw intensity data for each well were background-corrected by subtraction of the median intensities across all positive control wells on the same plate, and used to calculate the inhibitory effect of each compound per cell line. A Genedata Assay Analyzer and Condoseo were used for data pattern correction, calculation and IC50 curve fitting. A Z′ factor was determined for each plate.

The test system of data set [2] is iPS-derived cardiomyocytes. The experiment in a line: CellTiter-Glo counter-screen, cardiomyocytes. The settings on record: Homo sapiens, Cardiomyocyte. The protocol:
Human induced pluripotent stem cell-derived cardiomyocytes were obtained from Cellular Dynamics International (Madison, Wis.), and handled according to the manufacturer's instructions;
as §1
(§3) In order to identify highly-selective cytotoxic inhibitors of hPSCs, the 696 cytotoxic inhibitors of hPSCs identified as described in Example 1 were counter-screened as described in the Materials and Methods section against other cell types, representative of all germ layers and developmental stages. Importantly, many of these cell types were differentiated from human ES or iPS cells. The screened cell types included ES-derived neural stem cells (NSCs), ES-derived mesenchymal stem cells (MSCs), ES-derived endodermal progenitor cells, ES-derived hepatocytes, iPS-derived cardiomyocytes, iPS-derived fibroblasts of origin (BJ fibroblasts), and three cancer cell lines: neuroblastoma (Kelly), cervical cancer (HeLa) and hepatocarcinoma (Huh7). The cell types and their relationship to stem cells are depicted schematically in FIG. 14.
Background: ATP-based viability assays read luminescence as a measure of living cells.

The nature of data set [3]: CellTiter-Glo counter-screen, hepatocytes. The settings on record: human, human embryonic stem cell-derived hepatocytes (Cellartis), read-out: Inhibition (%) ES-derived hepatocytes. Here is the method: Human embryonic stem cell-derived hepatocytes were obtained from Cellartis (Goteborg, Sweden), and handled according to the manufacturer's instructions;
as §1, §3

The subject of data set [4] is BJ-iPS28 induced pluripotent stem cells. The experiment in a line: CellTiter-Glo luminescent cell viability screen, BJ-iPS28. The settings on record: Homo sapiens; for EC50: 24 h. Here is the method: 5,000 CSES2 cells were plated in 50 μl per well of mTeSR1 medium into black 384-well clear-bottom plates (Falcon BD) pre-coated with Matrigel™ using WellMate cell dispenser (Matrix, Hudson, N.H.). 24 hours after plating, medium was replaced with 25 μl of fresh medium and 25 μl of 40 μM compound medium solutions in 1% DMSO from the intermediate compound dilution plates. The plates were incubated at 37° C., in a 5% CO2 atmosphere, for the entire duration of the screen, apart from the time required for liquid handling. Cell viability was determined 24 hours after compound treatment using CellTiter-Glo® luminescent cell viability assay kits. 50 μl of CellTiter-Glo® reagent was added to each well of the assay plates and fully mixed. After incubation at room temperature for 15 minutes, 25 μl of liquid was transferred from each well into a white opaque-bottom 384-well plate (PerkinElmer), and luminescence was measured using an EnVision® plate reader (PerkinElmer). 16 neutral control wells (0.5% DMSO) and 8 positive control wells (5 μM amsacrine hydrochloride were used to normalize the compound effect. All liquid transfer steps were handled with a Biomek® FXP Laboratory Automation Workstation (Beckman Coulter, Fullerton, Calif.) and Muitidrop Combi liquid dispenser (Thermo Fisher, Waltham, Mass.). An Assay Analyzer (Genedata, Basel, Switzerland) was used for data pattern correction and calculation. The Spotfire software (Spotfire, Somerville, Mass.) was used for data illustration.
as §1, with “BJ-iPS28 cell line and the BJ fibroblasts from which it was derived were screened at 6 concentrations ranging from 50 μM to 200 nM with 1:3 serial dilution steps.” left out
as §2
The effect of the selected compounds on human iPS cells was then determined. […]

The subject of data set [5] is ES-derived mesenchymal stem cells. In words: CellTiter-Glo counter-screen, mesenchymal stem cells. The following applies: Homo sapiens, at 20 μM (table title).
Where [6] appears, read: 24 h, read-out: EC50 CSES2 24 hours.
Setting [7] is: 48 h, read-out: EC50 CSES2 48 hours.

With `O=C(NN(C(=O)c1ccccc1)c1ccccc1)c1ccc(Cl)cc1` [PluriSIn #14], the EC50 amounted to 2.03 µM in data set [1] (setting [6]), 2.91 µM in data set [1] (setting [7]) and 3.48 µM in data set [4]. Moreover, the inhibition at 20 µM was 90.1% in data set [1]; 3.9% in data set [2]; -4.1% in data set [3]; 81.7% in data set [4] (at 20 μM, pluripotent stem cells). The inhibition at 12.5 µM in data set [5] was -1.5%.
For `C(=N\C1CCC(CC2CCCCC2)CC1)/OC1CCOC1` (stereo not drawn) [PluriSIn #15], the concentration giving a half-maximal response (EC50) in data set [1] (setting [6]) came to 2.98 µM; in data set [1] (setting [7]), 3.27 µM; in data set [4], 3.94 µM. In addition, the results for the inhibition at 20 µM in data set [1], in data set [2] and in data set [3] were 77.6%, 3.8% and 18.8%, respectively. The inhibition at 12.5 µM in data set [5] was 12%.

(Values after patent US20180153830A1, “SELECTIVE INHIBITORS OF UNDIFFERENTIATED CELLS” (Yissum Research Development Company of the Hebrew …, priority 2012, published 2018).)
